In patent US20260199320A1, “COMBINATION THERAPIES FOR TREATING CANCER” (INSTITUTE FOR CANCER RESEARCH D/B/A THE RESEARCH INSTITUTE …, priority 2022, published 2026):
Read-outs that look alike come from different tables or passages of the source.

Test system: HEP 3B Hepatocellular Carcinoma
Test: Cell viability by CellTiter Blue assay, CalcuSyn 2.0 combination analysis, HEP 3B
Details: for IC50: read-out: Dm; for Dose Len: Len alone; for Dose Lon: Lon alone; for Dose Sor: Sor alone
Method: Cell viability was analyzed by CellTiter Blue assay. ED, effective dose. The data analysis was performed using CalcuSyn 2.0 software. […] CI 0.85-0.9: slight synergism; CI 0.7-0.85: moderate synergism; CI 0.3-0.7: synergism; CI 0.1-0.3: strong synergism; CI<0.1: very strong synergism.

Compound: COc1cc2nccc(Oc3ccc(NC(=O)NC4CC4)c(Cl)c3)c2cc1C(N)=O [Len, Lenvatinib]
- Effect (Dose 1.0 uM): 0.3487
- Effect (Dose 2.0 uM): 0.5908
- Effect (Dose 4.0 uM): 0.6835
- Effect (Dose 6.0 uM): 0.706
- Effect (Dose 8.0 uM): 0.7316
- Effect (Dose 1.0E−4 uM): 1.0E−4
- IC50 (Homo sapiens, Hep3B): 1.98 µM
- Dose Len (Fa 0.05): 0.08241 µM
- Dose Len (Fa 0.1): 0.1847 µM
- Dose Len (Fa 0.15): 0.3044 µM
- Dose Len (Fa 0.2): 0.4435 µM
- Dose Len (Fa 0.25): 0.605 µM
- Dose Len (Fa 0.3): 0.7937 µM
- Dose Len (Fa 0.35): 1.016 µM
- Dose Len (Fa 0.4): 1.279 µM
- Dose Len (Fa 0.45): 1.596 µM
- Dose Len (Fa 0.48908 (experimental point)): 1.891 µM
- Dose Len (Fa 0.5): 1.982 µM
- Dose Len (Fa 0.55): 2.462 µM
- Dose Len (Fa 0.6): 3.071 µM
- Dose Len (Fa 0.65): 3.868 µM
- Dose Len (Fa 0.66115 (experimental point)): 4.08 µM
- Dose Len (Fa 0.7): 4.949 µM
- Dose Len (Fa 0.75): 6.493 µM
- Dose Len (Fa 0.76439 (experimental point)): 7.066 µM
- Dose Len (Fa 0.79346 (experimental point)): 8.481 µM
- Dose Len (Fa 0.8): 8.859 µM
- Dose Len (Fa 0.83864 (experimental point)): 11.7543 µM
- Dose Len (Fa 0.85): 12.9048 µM
- Dose Len (Fa 0.9): 21.2693 µM
- Dose Len (Fa 0.95): 47.6701 µM
- Dose Len (Fa 0.97): 84.6505 µM
- Dose Len (Fa 1.0E−4 (experimental point)): 9.48e-05 µM

Compound: NC(=O)N1CCC(CC(=O)N2CCC([C@H]3c4ncc(Br)cc4CCc4cc(Cl)cc(Br)c43)CC2)CC1 [Lon, Lonafarnib]
- Effect (Dose 100.0 nM): 0.2171
- Effect (Dose 200.0 nM): 0.2792
- Effect (Dose 400.0 nM): 0.3124
- Effect (Dose 600.0 nM): 0.3247
- Effect (Dose 800.0 nM): 0.3747
- Effect (Dose 1.0E−4 nM): 1.0E−4
- IC50 (Homo sapiens, Hep3B): 1.56 µM
- Dose Lon (Fa 0.05): 7.632 nM
- Dose Lon (Fa 0.1): 29.4334 nM
- Dose Lon (Fa 0.15): 67.8864 nM
- Dose Lon (Fa 0.2): 127.362 nM
- Dose Lon (Fa 0.25): 214.159 nM
- Dose Lon (Fa 0.3): 337.210 nM
- Dose Lon (Fa 0.34468 (experimental point of LonSor)): 488.163 nM
- Dose Lon (Fa 0.35): 509.303 nM
- Dose Lon (Fa 0.37774 (experimental point of LonSor)): 632.458 nM
- Dose Lon (Fa 0.4): 749.086 nM
- Dose Lon (Fa 0.45): 1084.42 nM
- Dose Lon (Fa 0.48908 (experimental point of LonLen)): 1439.98 nM
- Dose Lon (Fa 0.5): 1558.23 nM
- Dose Lon (Fa 0.55): 2239.05 nM
- Dose Lon (Fa 0.6): 3241.39 nM
- Dose Lon (Fa 0.60837 (experimental point of LonSor)): 3452.95 nM
- Dose Lon (Fa 0.65): 4767.46 nM
- Dose Lon (Fa 0.66115 (experimental point of LonLen)): 5212.31 nM
- Dose Lon (Fa 0.7): 7200.51 nM
- Dose Lon (Fa 0.75): 11337.8 nM
- Dose Lon (Fa 0.76439 (experimental point of LonLen)): 13060.1 nM
- Dose Lon (Fa 0.79346 (experimental point of LonLen)): 17723.1 nM
- Dose Lon (Fa 0.8): 19064.4 nM
- Dose Lon (Fa 0.83864 (experimental point of LonLen)): 30595.1 nM
- Dose Lon (Fa 0.84428 (experimental point of LonSor)): 33023.4 nM
- Dose Lon (Fa 0.85): 35766.8 nM
- Dose Lon (Fa 0.9): 82494.1 nM
- Dose Lon (Fa 0.93635 (experimental point of LonSor)): 200408. nM
- Dose Lon (Fa 0.95): 318153. nM
- Dose Lon (Fa 0.97): 831265. nM
- Dose Lon (Fa 1.0E−4 (experimental point)): 9.27e-05 nM

Compound: CNC(=O)c1cc(Oc2ccc(NC(=O)Nc3ccc(Cl)c(C(F)(F)F)c3)cc2)ccn1 [Sor, Sorafenib]
- Effect (Dose 1.0 uM): 0.05824
- Effect (Dose 2.0 uM): 0.1667
- Effect (Dose 4.0 uM): 0.4078
- Effect (Dose 6.0 uM): 0.6762
- Effect (Dose 8.0 uM): 0.8681
- Effect (Dose 1.0E−4 uM): 1.0E−4
- Dose Sor (Fa 0.05): 0.1769 µM
- Dose Sor (Fa 0.1): 0.4116 µM
- Dose Sor (Fa 0.15): 0.6944 µM
- Dose Sor (Fa 0.2): 1.029 µM
- Dose Sor (Fa 0.25): 1.425 µM
- Dose Sor (Fa 0.3): 1.893 µM
- Dose Sor (Fa 0.34468 (experimental point)): 2.386 µM
- Dose Sor (Fa 0.35): 2.451 µM
- Dose Sor (Fa 0.37774 (experimental point)): 2.806 µM
- Dose Sor (Fa 0.4): 3.12 µM
- Dose Sor (Fa 0.45): 3.933 µM
- Dose Sor (Fa 0.5): 4.934 µM
- Dose Sor (Fa 0.55): 6.19 µM
- Dose Sor (Fa 0.6): 7.803 µM
- Dose Sor (Fa 0.60837 (experimental point)): 8.118 µM
- Dose Sor (Fa 0.65): 9.934 µM
- Dose Sor (Fa 0.7): 12.8580 µM
- Dose Sor (Fa 0.75): 17.0827 µM
- Dose Sor (Fa 0.8): 23.6479 µM
- Dose Sor (Fa 0.84428 (experimental point)): 33.3507 µM
- Dose Sor (Fa 0.85): 35.0585 µM
- Dose Sor (Fa 0.9): 59.1449 µM
- Dose Sor (Fa 0.93635 (experimental point)): 103.075 µM
- Dose Sor (Fa 0.95): 137.645 µM
- Dose Sor (Fa 0.97): 251.060 µM
- Dose Sor (Fa 1.0E−4 (experimental point)): 0.000148 µM
- IC50 (CalcuSyn median-effect fit, single drug dosed in uM): 4.93 µM
